How the values were obtained:
Pancreatic CSCs [1] = assay: apoptosis; format: cell-based, human; conditions: 48 h, annexin-PI, flow cytometer
Procedure: (A and B) Induction of apoptosis and activation of caspase-3/-7. Pancreatic CSCs were treated with rottlerin (0-2 μM) for 48 h, and apoptosis and caspase-3/-7 activity were measured by […] and colorometric assay, respectively. […] (C) Pancreatic CSCs were treated with rottlerin (0-1 μM) for 48 h, and the expression of Bcl-2, XIAP and Survivin was measured by qRT-PCR and normalized to GAPDH.
(§1) (A) Pancreatic CSCs were treated with SAHA (3 and 5 μM) and 5-Aza-dc (2 and 4 μM) and cell viability was measured at 48 h by staining with trypan blue using Vi-CELL analyzer (Beckman Counter). (B) Pancreatic CSCs were untreated (a) or treated with SAHA (b) or 5-Aza-dC (c) for 48 h, and apoptosis was measured by staining with annexin-PI using Accuri Flow Cytometer. (C) Caspase-3/7 activity was measured in pancreatic CSCs treated with SAHA (0.5 and 2 μM) or 5-Aza-dC (1 and 3 μM) for 25 h.
(A) Regulation of caspase-3/7 activity by EGCG. CSCs were treated with EGCG (0-60 μM) for 24 h, and caspase-3/7 activity was measured as per manufacturer's instructions. […] (B) Regulation of apoptosis by EGCG. CSCs were treated with EGCG (0-60 μM) for 48 h, and apoptosis was measured by TUNEL assay. […] (C) Regulation of apoptosis-related proteins. Pancreatic CSCs were treated with EGCG (0-60 μM) for 36 h. Real time PCR (q-RT-PCR) was performed to examine the expression of Bcl-2, survivin, XIAP, and GAPDH.
FIG. 42A and FIG. 42B show graphs showing quercetin synergizes with EGCG to inhibit self-renewal capacity, invasion, migration, and TCF/LEF and Gli transcriptional activities in pancreatic CSCs. (A) Effects of EGCG and quercetin on spheroid and colony formation. Upper Panel, uercetin synergizes with EGCG to inhibit spheroid's cell viability. CSCs were seeded in suspension and treated with EGCG (0-60 μM) with or without quercetin (20 μM) for 7 days. At the end of incubation period, all the spheroids were collected and resuspended. Cell viability was measured by trypan blue assay. […] Lower panel, uercetin synergizes with EGCG to inhibit colony formation. Pancreatic CSCs were seeded in soft agar and treated with various doses of EGCG (0-60 μM) with or without quercetin (20 μM) and incubated at […] for 21 days. At the end of incubation period, colonies were counted. […] (B) Effects of EGCG and quercetin on invasion and migration. Upper panel, Matrigel invasion assay. CSCs were plated onto the Matrigel-coated membrane in the top chamber of the transwell and treated with EGCG (0-60 μM) with or without quercetin (20 μM) for 48 hrs. Cells invaded to the lower chambered were fixed with methanol, stained with crystal violet and counted. […] Lower panel, Transwell migration assay. Pancreatic CSCs were plated in the top chamber of the transwell and treated with EGCG (0-60 μM) with or without quercetin (20 μM) for 48 hrs. Cells migrated to the lower chambered were fixed with methanol, stained with crystal violet and counted. […] (C) Quercetin synergizes with EGCG to induce apoptosis. CSCs were seeded in suspension and treated with EGCG (0-60 μM) with or without quercetin (20 μM) for 7 days. At the end of incubation period, all the spheroids were collected. Apoptosis was measured by TUNEL assay. […] (D) Effects of EGCG and quercetin on TCF/LEF and Gli transcriptional activities. Pancreatic CSCs were transduced with either lentivirus encoding TCF/LEF responsive GFP and luciferase genes or Gli-responsive GFP and luciferase genes. Transduced CSCs were treated with EGCG (40 μM) with or without quercetin (20 μM) for 48 hrs and the luciferase activity was measured.
Pancreatic CSCs were (a) untreated, (b) treated with SAHA, or (c) treated with 5-Aza-dC for 48 hours and apoptosis was measured by staining with annexin-PI using Accuri Flow Cytometer. The results of those studies are illustrated in FIG. 31B.

Pancreatic CSCs [2] = assay: cell viability, trypan blue, Vi-CELL analyzer; format: cell-based, human
Procedure: Pancreatic CSCs were treated with resveratrol (0-20 μM), curcumin (0-20 μM), honokiol (0-20 μM) and diallyl trisulphide (0-20 μM) for 3 days, and cell viability was measured by staining with trypan blue using Vi-CELL analyzer (Beckman Counter).
Pancreatic CSCs were treated with sulforaphane (0-20 μM), rottlerin (0-2 μM), EGCG (0-60 μM) and embelin (0-5 μM) for 3 days, and cell viability was measured by staining with trypan blue using Vi-CELL analyzer (Beckman Counter).
as §1
Pancreatic CSCs were treated with resveratrol (0-20 μM), curcumin (0-20 μM), honokiol (0-20 μM), and diallyl trisulphide (0-20 μM) for 3 days and cell viability was measured by staining with trypan blue using Vi-CELL analyzer. The results of those studies are illustrated in FIG. 27.
Pancreatic CSCs were treated with sulforaphane (0-20 μM), rottlerin (0-2 μM), EGCG (0-60 μM), and embelin (0-5 μM) for 3 days and cell viability was measured by staining with trypan blue using Vi-CELL analyzer. The results of those studies are illustrated in FIG. 28.
Pancreatic CSCs were treated with SAHA […] Vorinostat (3 and 5 μM) and 5-Aza-2′-deoxycytidine (5-Aza-dC, 2 and 4 μM) and cell viability was measured at 48 hours by staining with trypan blue using Vi-CELL analyzer. The results of those studies are illustrated in FIG. 31A.

Breast CSCs = assay: cell viability by XTT assay; format: cell-based; conditions: 3 days
Procedure: Breast CSCs were seeded in 96-well plate and treated with sulforaphane, diallyl trisulphide, resveratrol and curcumin for 3 days. At the end of incubation period, CSCs were harvested and cell viability was measured by XTT assay.
Breast CSCs were seeded in 96-well plate and treated with rottlerin, EGCG, embelin, and honokiol for 3 days. At the end of incubation period, breast CSCs were harvested and cell viability was measured by XTT assay.
(A-D) Breast CSCs were treated with PITC (0-20 μM), BSC, (0-20 μM), sulforaphane (0-20 μM) and honokiol (0-10 μM) for 3 days, and cell viability was measured by XTT assay.
Breast CSCs were treated with rottlerin (0-1 μM) for 3 days, and cell viability was measured by XTT assay.
Breast CSCs were seeded in 96-well plate and treated with sulforaphane, diallyl trisulphide, resveratrol, and curcumin for 3 days and cell viability was measured by XTT assay. The results of those studies are illustrated in FIG. 29.
Breast CSCs were seeded in 96-well plate and treated with Rottlerin, EGCG, embelin, and honokiol for 3 days and cell viability was measured by XTT assay. The results of those studies are illustrated in FIG. 30.

Pancreatic CSCs [3] = assay: cell viability by XTT assay; format: cell-based, human; conditions: 3 days; BSC 0-20 μM, honokiol 0-10 μM
Procedure: (§2) (A-B) Pancreatic CSCs were treated with BSC (0-20 μM) and honokiol (0-10 μM); (C-D) Prostate CSCs were treated with PITC (0-20 μM) and BSC (0-20 μM) for 3 days. Cell viability was measured by XTT assay.

Prostate CSCs [4] = assay: cell viability by XTT assay; format: cell-based, human; conditions: 3 days; PITC 0-20 μM, BSC 0-20 μM
Procedure: as §2

pancreatic cancer = conditions: background statement; cited from earlier work
Brain CSCs [5] = assay: cell viability, trypan blue, Vi-CELL analyzer; format: cell-based; conditions: 3 days
Procedure: Brain CSCs were treated with resveratrol (0-20 μM), curcumin (0-20 μM), honokiol (0-20 μM) and diallyl trisulphide (0-10 μM) for 3 days, and cell viability was measured by staining with trypan blue using Vi-CELL analyzer (Beckman Counter).
Brain CSCs were treated with sulforaphane (0-20 μM), rottlerin (0-1 μM), EGCG (0-40 μM) and embelin (0-5 μM) for 48 h, and cell viability was measured by staining with trypan blue using Vi-CELL analyzer (Beckman Counter).
Brain CSCs were treated with resveratrol (0-20 μM), curcumin (0-20 μM) honokiol (0-20 μM), and diallyl trisulphide (0-10 μM) for 3 days and cell viability was measured by staining with trypan blue using Vi-CELL analyzer. The results of those studies are illustrated in FIG. 23.
Brain CSCs were treated with sulforaphane (0-20 μM), rottlerin (0-1 μM), EGCG (0-40 μM), and embelin (0-5 μM) for 48 hours and cell viability was measured by staining with trypan blue using Vi-CELL analyzer. The results of those studies are illustrated in FIG. 24.

Prostate CSCs [6] = assay: cell viability, trypan blue, Vi-CELL analyzer; format: cell-based, human; conditions: 3 days
Procedure: Prostate CSCs were treated with resveratrol (0-20 μM), curcumin (0-20 μM), honokiol (0-20 μM) and diallyl trisulphide (0-10 μM) for 3 days, and cell viability was measured by staining with trypan blue using Vi-CELL analyzer (Beckman Counter).
Prostate CSCs were treated with sulforaphane (0-20 μM), rottlerin (0-5 μM), EGCG (0-40 μM) and embelin (0-1 μM) for 3 days, and cell viability was measured by staining with trypan blue using Vi-CELL analyzer (Beckman Counter).
Prostate CSCs were treated with resveratrol (0-20 μM), curcumin (0-20 μM), honokiol (0-20 μM), and diallyl trisulphide (0-10 μM) for 3 days and cell viability was measured by staining with trypan blue using Vi-CELL analyzer. The results of those studies are illustrated in FIG. 25.
Prostate CSCs were treated with sulforaphane (0-20 μM), rottlerin (0-5 μM), EGCG (0-40 μM), and embelin (0-1 μM) for 3 days and cell viability was measured by staining with trypan blue using Vi-CELL analyzer. The results of those studies are illustrated in FIG. 26.

Brain CSCs [7] = assay: cell viability by XTT assay; format: cell-based; conditions: 3 days; 0-20 μM
Procedure: (A-B) Brain CSCs were treated with sulforaphane (0-20 μM), and honokiol (0-20 μM) for 3 days, and cell viability was measured by XTT assay.

[8] = 48 h, SAHA 3 and 5 μM, 5-Aza-dc 2 and 4 μM

| SMILES | cell viability (Breast CSCs) | cell viability (Pancreatic CSCs [2]; 3 days) | cell viability (Brain CSCs [5]) | cell viability (Prostate CSCs [6]) | further results |
| --- | --- | --- | --- | --- | --- |
| Nc1ncn([C@H]2C[C@H](O)[C@@H](CO)O2)c(=O)n1 [5-Aza-dC, 5-Aza-2′-deoxycytidine, reference compound] | – | – | – | – | apoptosis (Pancreatic CSCs [1]): promote apoptosis; cell viability (Pancreatic CSCs [2]; [8]): inhibit cell viability |
| N#C[Se]Cc1ccccc1 [BSC, benzyl selenocyanate] | inhibit cell viability | – | – | – | cell viability (Pancreatic CSCs [3]): inhibit cell viability; cell viability (Prostate CSCs [4]): inhibit cell viability |
| Nc1ccn([C@@H]2O[C@H](CO)[C@@H](O)C2(F)F)c(=O)n1 [Gemcitabine] | – | – | – | – | pancreatic cancer patients in whom the drug is effective (pancreatic cancer): 30%; survival of pancreatic cancer patients (pancreatic cancer): less than 5 years |
| S=C=Nc1ccccc1 [PITC, phenyl isothiocyanate] | inhibit cell viability | – | – | – | cell viability (Prostate CSCs [4]): inhibit cell viability |
| O=C(CCCCCCC(=O)Nc1ccccc1)NO [SAHA, reference compound] | – | – | – | – | apoptosis (Pancreatic CSCs [1]): promote apoptosis; cell viability (Pancreatic CSCs [2]; [8]): inhibit cell viability |
| COc1cc(/C=C/C(=O)CC(=O)/C=C/c2ccc(O)c(OC)c2)ccc1O [curcumin] | inhibit cell viability | inhibit cell viability | inhibit cell viability | inhibit cell viability | – |
| C=CCSSSCC=C [diallyl trisulphide] | inhibit cell viability | inhibit cell viability | inhibit cell viability | inhibit cell viability | – |
| C=CCc1ccc(O)c(-c2ccc(O)c(CC=C)c2)c1 [honokiol] | inhibit cell viability | inhibit cell viability | inhibit cell viability | inhibit cell viability | cell viability (Pancreatic CSCs [3]): inhibit cell viability; cell viability (Brain CSCs [7]): inhibit cell viability |
| Oc1ccc(C=Cc2cc(O)cc(O)c2)cc1 [resveratrol] | inhibit cell viability | inhibit cell viability | inhibit cell viability | inhibit cell viability | – |

From patent publication US20160374944A1, “COMPOSITIONS AND METHODS FOR TREATING AND PREVENTING CANCER BY TARGETING AND INHIBITING CANCER STEM CELLS” (priority 2011, published 2016)
